Experimental data taken from US20260184675A1, “CHIRAL ISOMERIC SULFITE COMPOUND AND APPLICATION THEREOF” (Chengdu Hanova BioSciences Co., Ltd, priority 2024, published 2026).
Where “and” joins values, the source holds several entries; their conditions need not be identical. Equal entries are not always repeated.

Experiments:
[1] = tested on: pest eggs of Tetranychus cinnabarinus; experiment: Effect on hatching of pest eggs of Tetranychus cinnabarinus, leaf disc method; assay type: in vivo; settings: for Hatching rate (%): 7 days after insecticide delivery; for inhibitory effect on the hatching of pest eggs of Tetranychus cinnabarinus (in words): 1 ppm
How it was run: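 Adult female mites laid eggs on 2.0 cm Vicia faba leaf discs for up to 36 h; discs with counted eggs were dipped 10 s in compound solution or water, then kept moist. Hatched eggs were counted 7 days after treatment and control effect was calculated by formula.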

[2] = tested on: eggs of Panonychus citri; experiment: Effect on hatching of eggs of Panonychus citri, leaf disc method; assay type: in vivo; settings: 1 ppm; for Hatching rate (%), Replicate 1 / Hatching rate (%), Replicate 2 / Hatching rate (%), Replicate 3 / Number of hatched larvae 5 days after insecticide delivery, Replicate 1 / Number of hatched larvae 5 days after insecticide delivery, Replicate 2 / Number of hatched larvae 5 days after insecticide delivery, Replicate 3: Panonychus citri eggs; for Hatching rate (%), Replicate 1 / Hatching rate (%), Replicate 2 / Hatching rate (%), Replicate 3: 5 days after delivery; for Number of hatched larvae 5 days after insecticide delivery, Replicate 1 / Number of hatched larvae 5 days after insecticide delivery, Replicate 2 / Number of hatched larvae 5 days after insecticide delivery, Replicate 3: leaf disc
[3] = tested on: eggs of Harmonia axyridis; experiment: Effect on hatching of eggs of Harmonia axyridis, egg card immersion; assay type: in vivo; settings: 100 ppm; for Number of hatched larvae 4 days after insecticide delivery, Replicate 1 / Number of hatched larvae 4 days after insecticide delivery, Replicate 2 / Number of hatched larvae 4 days after insecticide delivery, Replicate 3: Harmonia axyridis egg cards, immersed 30 seconds; for Hatching rate (%), Replicate 1 / Hatching rate (%), Replicate 2 / Hatching rate (%), Replicate 3: Harmonia axyridis eggs, 4 days after delivery
How it was run: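 Egg cards (~20 eggs each) dipped 30 s in 100 ppm insecticide, air dried and kept moist at 27° C; 5 cards per treatment, 3 replicates. Hatching assessed 4 days after treatment against pre-treatment egg counts, and control effect calculated by formula.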

[4] = tested on: Magnaporthe grisea; assay type: cell-based; settings: 100 ppm; for Average antifungal rate (%) / Antifungal rate of Magnaporthe grisea (%), Replicate 1 / Antifungal rate of Magnaporthe grisea (%), Replicate 2 / Antifungal rate of Magnaporthe grisea (%), Replicate 3: 96-well plate; for Average antifungal rate (%): average of 3 replicates

CC(COc1ccc(Cl)cc1Cl)OS(=O)OCCF [1′-(R,S)]
Hatching rate (%) ([1]; 0.25 mg/L, Replicate 1): 54.17% | Hatching rate (%) ([1]; 0.25 mg/L, Replicate 2): 29.17% | Number of hatched larvae 7 days after insecticide delivery ([1]; 0.25 mg/L, Replicate 1): 22 | Number of hatched larvae 7 days after insecticide delivery ([1]; 0.25 mg/L, Replicate 2): 68 | Hatching rate (%) ([1]; 0.5 mg/L, Replicate 1): 1.25% | Hatching rate (%) ([1]; 0.5 mg/L, Replicate 2): 5.00% | Number of hatched larvae 7 days after insecticide delivery ([1]; 0.5 mg/L, Replicate 1): 79 | Number of hatched larvae 7 days after insecticide delivery ([1]; 0.5 mg/L, Replicate 2): 76 | Hatching rate (%) ([1]; 1 mg/L, Replicate 1): 0.00% | Hatching rate (%) ([1]; 1 mg/L, Replicate 2): 0.00% | Number of hatched larvae 7 days after insecticide delivery ([1]; 1 mg/L, Replicate 1): 62 | Number of hatched larvae 7 days after insecticide delivery ([1]; 1 mg/L, Replicate 2): 42 | inhibitory effect on the hatching of pest eggs of Tetranychus cinnabarinus (in words) [1]: excellent inhibitory effects | inhibitory effect on the hatching of eggs of Panonychus citri (in words) [2]: good inhibitory effects | Hatching rate (%), Replicate 1 ([2]; listed as 1′-(R, S)): 0.00% | Hatching rate (%), Replicate 2 ([2]; listed as 1′-(R, S)): 0.00% | Hatching rate (%), Replicate 3 ([2]; listed as 1′-(R, S)): 0.00% | Number of hatched larvae 5 days after insecticide delivery, Replicate 1 ([2]; listed as 1′-(R, S)): 0 | Number of hatched larvae 5 days after insecticide delivery, Replicate 2 ([2]; listed as 1′-(R, S)): 0 | Number of hatched larvae 5 days after insecticide delivery, Replicate 3 ([2]; listed as 1′-(R, S)): 0 | inhibitory activity on the hatching of eggs of Harmonia axyridis (in words) [3]: strong inhibitory activities | Number of hatched larvae 4 days after insecticide delivery, Replicate 1 ([3]; listed as 1′-(R, S)): 0 | Number of hatched larvae 4 days after insecticide delivery, Replicate 2 ([3]; listed as 1′-(R, S)): 0 | Number of hatched larvae 4 days after insecticide delivery, Replicate 3 ([3]; listed as 1′-(R, S)): 0 | Hatching rate (%), Replicate 1 ([3]; listed as 1′-(R, S)): 0.00% | Hatching rate (%), Replicate 2 ([3]; listed as 1′-(R, S)): 0.00% | Hatching rate (%), Replicate 3 ([3]; listed as 1′-(R, S)): 0.00% | inhibitory rate against Magnaporthe grisea (in words) [4]: strong inhibitory rate | Average antifungal rate (%) [4]: 100.09% | Antifungal rate of Magnaporthe grisea (%), Replicate 1 [4]: 100.26% | Antifungal rate of Magnaporthe grisea (%), Replicate 2 [4]: 99.74% | Antifungal rate of Magnaporthe grisea (%), Replicate 3 [4]: 100.26%

CC[C@@H](COc1ccc(Cl)cc1Cl)OS(=O)OCCF (stereo partly drawn) [19-(S,R)]
Hatching rate (%) ([1]; 0.25 mg/L, Replicate 1): 43.55% | Hatching rate (%) ([1]; 0.25 mg/L, Replicate 2): 45.61% | Number of hatched larvae 7 days after insecticide delivery ([1]; 0.25 mg/L, Replicate 1): 35 | Number of hatched larvae 7 days after insecticide delivery ([1]; 0.25 mg/L, Replicate 2): 31 | Hatching rate (%) ([1]; 0.5 mg/L, Replicate 1): 5.13% | Hatching rate (%) ([1]; 0.5 mg/L, Replicate 2): 5.26% | Number of hatched larvae 7 days after insecticide delivery ([1]; 0.5 mg/L, Replicate 1): 74 | Number of hatched larvae 7 days after insecticide delivery ([1]; 0.5 mg/L, Replicate 2): 54 | Hatching rate (%) ([1]; 1 mg/L, Replicate 1): 0.00% | Hatching rate (%) ([1]; 1 mg/L, Replicate 2): 0.00% | Number of hatched larvae 7 days after insecticide delivery ([1]; 1 mg/L, Replicate 1): 60 | Number of hatched larvae 7 days after insecticide delivery ([1]; 1 mg/L, Replicate 2): 68 | inhibitory effect on the hatching of pest eggs of Tetranychus cinnabarinus (in words) [1]: excellent inhibitory effects | inhibitory effect on the hatching of eggs of Panonychus citri (in words) [2]: good inhibitory effects | Hatching rate (%), Replicate 1 [2]: 0.00% | Hatching rate (%), Replicate 2 [2]: 0.00% | Hatching rate (%), Replicate 3 [2]: 0.00% | Number of hatched larvae 5 days after insecticide delivery, Replicate 1 [2]: 0 | Number of hatched larvae 5 days after insecticide delivery, Replicate 2 [2]: 0 | Number of hatched larvae 5 days after insecticide delivery, Replicate 3 [2]: 0 | inhibitory activity on the hatching of eggs of Harmonia axyridis (in words) [3]: strong inhibitory activities | Number of hatched larvae 4 days after insecticide delivery, Replicate 1 [3]: 0 | Number of hatched larvae 4 days after insecticide delivery, Replicate 2 [3]: 0 | Number of hatched larvae 4 days after insecticide delivery, Replicate 3 [3]: 0 | Hatching rate (%), Replicate 1 [3]: 0.00% | Hatching rate (%), Replicate 2 [3]: 0.00% | Hatching rate (%), Replicate 3 [3]: 0.00% | inhibitory rate against Magnaporthe grisea (in words) [4]: strong inhibitory rate | Average antifungal rate (%) [4]: 99.77% | Antifungal rate of Magnaporthe grisea (%), Replicate 1 [4]: 100.10% | Antifungal rate of Magnaporthe grisea (%), Replicate 2 [4]: 99.34% | Antifungal rate of Magnaporthe grisea (%), Replicate 3 [4]: 99.87%

CC[C@H](COS(=O)OCCF)Oc1ccc(Cl)cc1Cl (stereo partly drawn) [19′-(R,S)]
Hatching rate (%) ([1]; 0.25 mg/L, Replicate 1): 70.31% | Hatching rate (%) ([1]; 0.25 mg/L, Replicate 2): 71.43% | Number of hatched larvae 7 days after insecticide delivery ([1]; 0.25 mg/L, Replicate 1): 19 | Number of hatched larvae 7 days after insecticide delivery ([1]; 0.25 mg/L, Replicate 2): 20 | Hatching rate (%) ([1]; 0.5 mg/L, Replicate 1): 46.48% | Hatching rate (%) ([1]; 0.5 mg/L, Replicate 2): 44.93% | Number of hatched larvae 7 days after insecticide delivery ([1]; 0.5 mg/L, Replicate 1): 38 | Number of hatched larvae 7 days after insecticide delivery ([1]; 0.5 mg/L, Replicate 2): 38 | Hatching rate (%) ([1]; 1 mg/L, Replicate 1): 6.00% | Hatching rate (%) ([1]; 1 mg/L, Replicate 2): 6.45% | Number of hatched larvae 7 days after insecticide delivery ([1]; 1 mg/L, Replicate 1): 47 | Number of hatched larvae 7 days after insecticide delivery ([1]; 1 mg/L, Replicate 2): 58 | Hatching rate (%), Replicate 1 [2]: 10.43% | Hatching rate (%), Replicate 2 [2]: 10.42% | Hatching rate (%), Replicate 3 [2]: 9.57% | Number of hatched larvae 5 days after insecticide delivery, Replicate 1 [2]: 12 | Number of hatched larvae 5 days after insecticide delivery, Replicate 2 [2]: 10 | Number of hatched larvae 5 days after insecticide delivery, Replicate 3 [2]: 9 | Number of hatched larvae 4 days after insecticide delivery, Replicate 1 [3]: 11 | Number of hatched larvae 4 days after insecticide delivery, Replicate 2 [3]: 10 | Number of hatched larvae 4 days after insecticide delivery, Replicate 3 [3]: 9 | Hatching rate (%), Replicate 1 [3]: 10.28% | Hatching rate (%), Replicate 2 [3]: 10.53% | Hatching rate (%), Replicate 3 [3]: 9.78% | inhibitory rate against Magnaporthe grisea (in words) [4]: strong inhibitory rate | Average antifungal rate (%) [4]: 97.19% and 86.12% | Antifungal rate of Magnaporthe grisea (%), Replicate 1 [4]: 85.69% | Antifungal rate of Magnaporthe grisea (%), Replicate 2 [4]: 86.41% | Antifungal rate of Magnaporthe grisea (%), Replicate 3 [4]: 86.27%

CCC(COc1ccc(Cl)cc1Cl)OS(=O)OCCF [19-(S,S)]
Hatching rate (%) ([1]; 0.25 mg/L, Replicate 1): 65.52% | Hatching rate (%) ([1]; 0.25 mg/L, Replicate 2): 69.86% | Number of hatched larvae 7 days after insecticide delivery ([1]; 0.25 mg/L, Replicate 1): 20 | Number of hatched larvae 7 days after insecticide delivery ([1]; 0.25 mg/L, Replicate 2): 22 | Hatching rate (%) ([1]; 0.5 mg/L, Replicate 1): 20.90% | Hatching rate (%) ([1]; 0.5 mg/L, Replicate 2): 21.31% | Number of hatched larvae 7 days after insecticide delivery ([1]; 0.5 mg/L, Replicate 1): 53 | Number of hatched larvae 7 days after insecticide delivery ([1]; 0.5 mg/L, Replicate 2): 48 | Hatching rate (%) ([1]; 1 mg/L, Replicate 1): 15.25% | Hatching rate (%) ([1]; 1 mg/L, Replicate 2): 14.29% | Number of hatched larvae 7 days after insecticide delivery ([1]; 1 mg/L, Replicate 1): 50 | Number of hatched larvae 7 days after insecticide delivery ([1]; 1 mg/L, Replicate 2): 54 | Hatching rate (%), Replicate 1 ([2]; listed as 19-(S, S)): 10.08% | Hatching rate (%), Replicate 2 ([2]; listed as 19-(S, S)): 9.90% | Hatching rate (%), Replicate 3 ([2]; listed as 19-(S, S)): 10.47% | Number of hatched larvae 5 days after insecticide delivery, Replicate 1 ([2]; listed as 19-(S, S)): 12 | Number of hatched larvae 5 days after insecticide delivery, Replicate 2 ([2]; listed as 19-(S, S)): 10 | Number of hatched larvae 5 days after insecticide delivery, Replicate 3 ([2]; listed as 19-(S, S)): 9 | Number of hatched larvae 4 days after insecticide delivery, Replicate 1 ([3]; listed as 19-(S, S)): 13 | Number of hatched larvae 4 days after insecticide delivery, Replicate 2 ([3]; listed as 19-(S, S)): 15 | Number of hatched larvae 4 days after insecticide delivery, Replicate 3 ([3]; listed as 19-(S, S)): 16 | Hatching rate (%), Replicate 1 ([3]; listed as 19-(S, S)): 13.68% | Hatching rate (%), Replicate 2 ([3]; listed as 19-(S, S)): 14.56% | Hatching rate (%), Replicate 3 ([3]; listed as 19-(S, S)): 15.38% | inhibitory rate against Magnaporthe grisea (in words) [4]: strong inhibitory rate | Average antifungal rate (%) [4]: 84.69% | Antifungal rate of Magnaporthe grisea (%), Replicate 1 [4]: 86.52% | Antifungal rate of Magnaporthe grisea (%), Replicate 2 [4]: 83.17% | Antifungal rate of Magnaporthe grisea (%), Replicate 3 [4]: 84.38%
